5 molecules from DBAASP can be followed below.

Among the test systems are Escherichia coli BL21AI; Bacillus subtilis PS832; Escherichia coli DL7; Streptococcus agalactiae; Vibrio alginolyticus.
What all share (experiment): ≥ marks a high value that may be exact or a test limit, other limits are often not marked, values filed in µg/mL are converted to µM
The test system of test [1] is Bacillus subtilis DSM 347.
Test [2] deals with Escherichia coli DSM 10233.
For test [3], the system named is Micrococcus luteus ATCC 10240.
The test system of test [4] is Micrococcus luteus DSM 1790.
Test [5] deals with Klebsiella aerogenes ATCC 13048.
For test [6], the system named is Staphylococcus epidermidis ATCC 12228.
Test [7] concerns Staphylococcus aureus BCRC 10780.
The test system of test [8] is Staphylococcus sp. BCRC 10451.
For test [9], the system named is Vibrio harveyi BCRC 13812.
The subject of test [10] is Acinetobacter baumannii CCARM 12005.
In test [11] the test system is Acinetobacter baumannii CCARM 12035.
The test system of test [12] is Acinetobacter baumannii CCARM 12036.
For test [13], the system named is Acinetobacter baumannii CCARM 12037.
The test system of test [14] is Bacillus subtilis KCTC 1021.
Test [15] deals with Bacillus subtilis KCTC 1022.
For test [16], the system named is Bacillus subtilis KCTC 3068.
In test [17] the test system is Escherichia coli CCARM 1229.
Test [18] deals with Escherichia coli CCARM 1238.
The test system of test [19] is Escherichia coli KCTC 1682.
Test [20] deals with Escherichia coli KCTC 2571.
The subject of test [21] is Escherichia coli KCTC 2593.
Test [22] has as its system Pseudomonas aeruginosa CCARM 2002.
The subject of test [23] is Pseudomonas aeruginosa CCARM 2003.
In test [24] the test system is Pseudomonas aeruginosa CCARM 2095.
Test [25] has as its system Pseudomonas aeruginosa CCARM 2163.
For test [26], the system named is Pseudomonas aeruginosa KCTC 1637.
Test [27] has as its system Pseudomonas aeruginosa KCTC 2004.
Test [28] deals with Pseudomonas aeruginosa KCTC 2513.
The subject of test [29] is Salmonella typhimurium CCARM 8003.
Test [30] has as its system Salmonella typhimurium CCARM 8007.
Test [31] relates to Salmonella typhimurium CCARM 8009.
The test system of test [32] is Salmonella typhimurium KCTC 1926.
The subject of test [33] is Staphylococcus aureus CCARM 3089.
Test [34] deals with Staphylococcus aureus CCARM 3090.
The test system of test [35] is Staphylococcus aureus CCARM 3108.
The subject of test [36] is Staphylococcus aureus CCARM 3114.
In test [37] the test system is Staphylococcus aureus CCARM 3126.
The subject of test [38] is Staphylococcus aureus KCTC 1621.
Test [39] has as its system Staphylococcus aureus KCTC 1916.
Test [40] concerns Staphylococcus aureus KCTC 3881.
The test system of test [41] is Staphylococcus epidermidis KCTC 1917.
Test [42] relates to Staphylococcus aureus ATCC 25023.

Converted amounts (≈) assume the structure as drawn. Where only a bound is given, the exact number is not on record here.

On to `CC[C@H](C)[C@H](NC(=O)[C@H](CCCN=C(N)N)NC(=O)[C@H](CCCN=C(N)N)NC(=O)[C@@H]1CCCN1C(=O)[C@@H]1CCCN1C(=O)[C@H](CCCN=C(N)N)NC(=O)[C@@H]1CCCN1C(=O)[C@H](CCCN=C(N)N)NC(=O)[C@@H]1CCCN1C(=O)[C@H](CC(C)C)NC(=O)[C@H](Cc1ccc(O)cc1)NC(=O)[C@@H]1CCCN1C(=O)[C@@H]1CCCN1C(=O)[C@H](CCCCN)NC(=O)[C@H](CC(=O)O)NC(=O)[C@@H](N)C(C)C)C(=O)N[C@@H](Cc1ccc(O)cc1)C(=O)N[C@@H](CC(N)=O)C(=O)O` [VDKPPYLPRPRPPRRIYN], for which the MIC in [1] was at least 55.9 µM; in the test on Escherichia coli BL21AI, 28.6 µM (≈ 64 µg/mL); in test [2] it was at least 55.9 µM; in test [3], at least 57.3 µM; in test [4], 6.98 µM (≈ 15.6 µg/mL).
With `CC(C)C[C@H](NC(=O)CNC(=O)[C@H](C)NC(=O)[C@H](CCCN=C(N)N)NC(=O)[C@H](Cc1cnc[nH]1)NC(=O)[C@H](C)NC(=O)[C@@H](N)CC(=O)O)C(=O)N[C@@H](CCC(N)=O)C(=O)N[C@@H](Cc1ccccc1)C(=O)N1CCC[C@H]1C(=O)N[C@H](C(=O)NCC(=O)N[C@@H](CCCN=C(N)N)C(=O)N[C@H](C(=O)N[C@@H](Cc1cnc[nH]1)C(=O)N[C@@H](CCCN=C(N)N)C(=O)N[C@@H](CC(C)C)C(=O)N[C@@H](CC(C)C)C(=O)N[C@@H](CCCN=C(N)N)C(=O)N[C@@H](CCCCN)C(N)=O)C(C)C)C(C)C` [DAHRAGLQFPVGRVHRLLRK], the MIC in the test with Bacillus subtilis PS832 was 2 µM (≈ 4.65 µg/mL); with Escherichia coli DL7 it was 16 µM (≈ 37.2 µg/mL); in test [5], at least 32 µM; in test [6], 4 µM (≈ 9.3 µg/mL).
With `CC[C@H](C)[C@H](NC(=O)[C@H](Cc1ccccc1)NC(C)=O)C(=O)N[C@@H](Cc1ccccc1)C(=O)N[C@@H](Cc1cnc[nH]1)C(=O)N[C@H](C(=O)N[C@H](C(=O)N[C@@H](CCCCN)C(=O)NCC(=O)N[C@@H](CC(C)C)C(=O)N[C@@H](Cc1ccccc1)C(=O)N[C@@H](Cc1cnc[nH]1)C(N)=O)[C@@H](C)CC)[C@@H](C)CC` [FIFHIIKGLFH], the MIC in [7] is 4.56 µM (≈ 6.44 µg/mL); in test [8] it was at least 72.9 µM; with Streptococcus agalactiae, at least 72.9 µM; in the test on Vibrio alginolyticus, 4.56 µM (≈ 6.44 µg/mL); in test [9] it was 4.56 µM (≈ 6.44 µg/mL).
On to `CC[C@H](C)[C@H](NC(=O)CNC(=O)[C@H](CCCN=C(N)N)NC(=O)[C@H](Cc1ccccc1)NC(=O)[C@@H](NC(=O)[C@H](Cc1cnc[nH]1)NC(=O)[C@H](Cc1cnc[nH]1)NC(=O)[C@H](Cc1ccccc1)NC(=O)[C@@H](N)Cc1ccccc1)[C@@H](C)CC)C(=O)N[C@@H](CCCCN)C(=O)N[C@@H](Cc1cnc[nH]1)C(=O)N[C@H](C(=O)NCC(=O)N[C@@H](CCCCN)C(=O)N[C@H](C(=O)N[C@H](C(=O)N[C@@H](Cc1cnc[nH]1)C(=O)N[C@@H](CCCN=C(N)N)C(=O)N[C@@H](CC(C)C)C(=O)N[C@H](C(=O)N[C@H](C(=O)NCC(=O)O)[C@@H](C)O)C(C)C)[C@@H](C)CC)[C@@H](C)O)C(C)C` [FFHHIFRGIKHVGKTIHRLVTG], for which the MIC was determined as 2 µM (≈ 5.2 µg/mL) in [10]; 2 µM (≈ 5.2 µg/mL) in test [11]; 2 µM (≈ 5.2 µg/mL) in test [12]; 2 µM (≈ 5.2 µg/mL) in [13]; 4 µM (≈ 10.4 µg/mL) in test [14]; 2 µM (≈ 5.2 µg/mL) in [15]. Also, the MIC came to 1 µM (≈ 2.6 µg/mL) in [16]; 4 µM (≈ 10.4 µg/mL) in [17]; 4 µM (≈ 10.4 µg/mL) in test [18]; 1 µM (≈ 2.6 µg/mL) in test [19]; 2 µM (≈ 5.2 µg/mL) in [20]; 2 µM (≈ 5.2 µg/mL) in test [21]. Moreover, the MIC in test [22] came to 2 µM (≈ 5.2 µg/mL); in test [23], 2 µM (≈ 5.2 µg/mL); in test [24] it was 2 µM (≈ 5.2 µg/mL); in [25], 2 µM (≈ 5.2 µg/mL); in test [26], 1 µM (≈ 2.6 µg/mL); in test [27], 2 µM (≈ 5.2 µg/mL). Further, the MIC in test [28] was determined as 2 µM (≈ 5.2 µg/mL); in test [29], 8 µM (≈ 20.8 µg/mL); in [30], 4 µM (≈ 10.4 µg/mL); in test [31], 4 µM (≈ 10.4 µg/mL); in test [32], 1 µM (≈ 2.6 µg/mL); in test [33], 8 µM (≈ 20.8 µg/mL). For the same molecule, the minimum inhibitory concentration (MIC) in [34] amounted to 8 µM (≈ 20.8 µg/mL); in [35] it was 4 µM (≈ 10.4 µg/mL); in test [36], 4 µM (≈ 10.4 µg/mL); in test [37], 4 µM (≈ 10.4 µg/mL); in test [38], 1 µM (≈ 2.6 µg/mL); in [39] it was 2 µM (≈ 5.2 µg/mL). Moreover, the MIC in test [40] and in [41] was 1 µM (≈ 2.6 µg/mL) throughout.
The molecule `CC(C)C[C@H](NC(=O)[C@H](CCCN=C(N)N)NC(=O)[C@H](CC(C)C)NC(=O)[C@H](CC(C)C)NC(=O)[C@H](CC(C)C)NC(=O)[C@H](CC(C)C)NC(=O)[C@H](CCCCN)NC(=O)[C@H](CC(C)C)NC(=O)[C@@H](N)CCCN=C(N)N)C(N)=O` [RLKLLLLRL] returned an MIC in [42] of 14.1 µM (≈ 16 µg/mL).
